According to patent US7566718B2, “Amine-linked pyridyl and phenyl substituted piperazine-piperidines with CXCR3 antagonist activity” (Schering Corporation, priority 2005, dated 2009):

Target: T1, human CXCR3 (N-delta 4) (Homo sapiens, UniProt P49682)
T1 construct: CD8 leader (N); Flag tag; expressed in transfected cells; membrane preparation
T1 sequence (P49682 5-368 limits assumed): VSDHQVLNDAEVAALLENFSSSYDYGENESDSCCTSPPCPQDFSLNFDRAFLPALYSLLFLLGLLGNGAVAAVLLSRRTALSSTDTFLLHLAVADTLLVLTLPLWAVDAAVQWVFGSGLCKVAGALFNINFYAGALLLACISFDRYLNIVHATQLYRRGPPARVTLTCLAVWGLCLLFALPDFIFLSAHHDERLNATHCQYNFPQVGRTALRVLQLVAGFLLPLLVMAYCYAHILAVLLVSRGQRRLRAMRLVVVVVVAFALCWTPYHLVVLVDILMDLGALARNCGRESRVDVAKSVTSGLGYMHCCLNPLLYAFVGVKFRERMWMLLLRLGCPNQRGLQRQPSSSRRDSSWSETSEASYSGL
Test: Human CXCR3 (N-delta 4) scintillation proximity assay (SPA), [125I] IP-10 binding to Ba/F3-hCXCR3 membranes
Conditions: IC50 rating; [125I] IP-10 displacement, human CXCR3; read-out: IC50
Description: The inventive compounds can readily be evaluated to determine activity at the CXCR3 receptors by known methods, such as, for example, development of a human CXCR3 (N-delta 4) Binding Assay.
The DNA encoding human CXCR3 was cloned by PCR using human genomic DNA (Promega, Madison, Wis.) as a template. The PCR primers were designed based on the published sequence of human orphan receptor GPR9 (1) with incorporated restriction sites, a Kozak consensus sequence, CD8 leader and Flag tag. The PCR product was subcloned into the mammalian expression vector pME18Sneo, a derivative of the SR-alpha expression vector (designated as pME18Sneo-hCXCR3 (N-delta 4).
IL-3-dependent mouse pro-B cells Ba/F3 were transfected by electroporation in 0.4 ml Dulbecco's PBS containing 4×10^6 cells with 20 μg of pME18Sneo-hCXCR3 (N-delta 4) plasmid DNA. Cells were pulsed at 400 Volts, 100 OHMs, 960 μFd. The transfected cells were under selection with 1 mg/ml G418 (Life Technologies, Gaithersburg, Md.). G418-resistant Ba/F3 clones were screened for CXCR3 expression by specific binding of [^125I] IP-10 (NEN Life Science Products, Boston, Mass.).
Ba/F3 cells expressing human CXCR3 (N-delta 4) were pelleted and resuspended in the lysis buffer containing 10 mM HEPES, pH 7.5 and Complete® protease inhibitors (1 tablet per 100 ml) (Boehringer Mannheim, Indianapolis, Ind.) at a cell density of 20×10^6 cells per ml. After 5 minute incubation on ice, cells were transferred to 4639 cell disruption bomb (Parr Instrument, Moline, Ill.) and applied with 1,500 psi of nitrogen for 30 minutes on ice. Large cellular debris was removed by centrifugation at 1,000×g. Cell membrane in the supernatant was sedimented at 100,000×g. The membrane was resuspended in the lysis buffer supplemented with 10% sucrose and stored at −80° C. Total protein concentration of the membrane was determined by BCA method from Pierce (Rockford, Ill.).
Human CXCR3 (N-Delta 4) Scintillation Proximity Assay (SPA):
For each assay point, 2 μg of membrane was preincubated for 1 hr with 300 μg wheat germ agglutinin (WGA) coated SPA beads (Amersham, Arlington Heights, Ill.) in the binding buffer (50 mM HEPES, 1 mM CaCl2, 5 mM MgCl2, 125 mM NaCl, 0.002% NaN3, 1.0% BSA) at room temperature. The beads were spun down, washed once, resuspended in the binding buffer and transferred to a 96-well Isoplate (Wallac, Gaithersburg, Md.). 25 pM of [^125I] IP-10 with tested compounds in a series of titration were added to start the reaction. After 3 hr reaction at room temperature, the amount of [^125I] IP-10 bound to the SPA beads was determined with a Wallac 1450 Microbeta counter.

Structure (SMILES) | IC50 [nM]
CC[C@H]1CN(c2ncc([N+](=O)[O-])cc2Cl)CCN1C1CCN([C@H](CO)c2ccc(Cl)cc2)CC1 [Compound 201] | < 25
CC[C@H]1CN(c2ncc(NS(C)(=O)=O)cc2Cl)CCN1C1CCN(Cc2ccc(Cl)cc2NC)CC1 [Compound 14] | < 25
Cc1cc(Nc2c(NCC(F)(F)F)c(=O)c2=O)cnc1N1C[C@@H](C)N(C2CCN(C(=O)c3ccc(C#N)cc3)CC2)C[C@@H]1C [Compound 131] | > 100
CC[C@H]1CN(c2ncc(NC3=NS(=O)(=O)N=C3N3CCOCC3)cc2Cl)CCN1C1CCN(Cc2ccc(F)c(F)c2)CC1 [Compound 269] | > 100
CC[C@H]1CN(c2ncc(NS(C)(=O)=O)cc2Cl)CCN1C1CCN(C(=O)c2ccc(Cl)cc2O)CC1 [Compound 62] | > 100
C[C@@H]1CN(c2ncc(Nc3c(NCC(F)(F)F)c(=O)c3=O)cc2Cl)[C@@H](C)CN1C1CCN(Cc2ccccc2OCC(=O)O)CC1 [Compound 137] | > 100
CC[C@H]1CN(c2ncc(Nc3c(C(C)C)c(=O)c3=O)cc2Cl)CCN1C1CCN(Cc2ccc(C#N)cc2)CC1 [Compound 88] | < 25
CC[C@H]1CN(c2ncc(NS(C)(=O)=O)cc2Cl)CCN1C1CCN(C(=O)c2ccc(Cl)c(Cl)c2)CC1 [Compound 63] | > 100
CC[C@H]1CN(c2ncc(N/C(=N/C#N)NC3CC3)cc2Cl)CCN1C1CCN(Cc2ccc(Cl)cc2F)CC1 [Compound 209] | 25 to 100
CC[C@H]1CN(c2ncc(N(C)c3c(NC4CC4)c(=O)c3=O)cc2Cl)CCN1C1CCN([C@H](C(N)=O)c2ccc(Cl)cc2)CC1 [Compound 112] | 25 to 100
C[C@@H]1CN(c2ncc(Nc3c(NCC(F)(F)F)c(=O)c3=O)cc2Cl)[C@@H](C)CN1C1CCN(Cc2ccc3c(c2)OCO3)CC1 [Compound 120] | > 100
C[C@@H]1CN(c2ncc(Nc3c(NCC(F)(F)F)c(=O)c3=O)cc2Cl)[C@@H](C)CN1C1CCN(CCC(C)(C)C)CC1 [Compound 150] | > 100
CC[C@H]1CN(c2ncc(NS(C)(=O)=O)cc2Cl)CCN1C1CCN(Cc2ccc(C)cc2)CC1 [Compound 19] | < 25
CC[C@H]1CN(c2ncc(NC(=O)C3CC3)cc2Cl)CCN1C1CCN(Cc2ccc(Cl)cc2F)CC1 [Compound 180] | < 25
CC[C@H]1CN(c2ncc(-n3cccn3)cc2Cl)CCN1C1CCN(Cc2ccc(OC(F)(F)F)cc2)CC1 [Compound 210] | 25 to 100
CC[C@H]1CN(c2ncc(NC3=NS(=O)(=O)N=C3N(C)C)cc2Cl)CCN1C1CCN(Cc2ccc(Cl)cc2F)CC1 [Compound 237] | < 25
CC[C@H]1CN(c2ncc(NS(C)(=O)=O)cc2Cl)CCN1C1CCN([C@H](CO)c2ccc(Cl)cc2)CC1 [Compound 4] | < 25
CCC(C)(C)C1CCC(N2CCC(N3C[C@H](C)N(c4ncc(Nc5c(NCC(F)(F)F)c(=O)c5=O)cc4Cl)C[C@H]3C)CC2)C1 (stereo partly drawn) [Compound 144] | > 100
CC[C@H]1CN(c2ncc(-n3cn[nH]c3=O)cc2Cl)CCN1C1CCN(Cc2ccc(Cl)cc2F)CC1 [Compound 179] | < 25
CC[C@H]1CN(c2ncc(NC3=NS(=O)(=O)N=C3N3CCC3)cc2Cl)CCN1C1CCN(Cc2ccc(F)c(F)c2)CC1 [Compound 268] | > 100
C[C@@H]1CN(c2ncc(Nc3c(NCC(F)(F)F)c(=O)c3=O)cc2Cl)[C@@H](C)CN1C1CCN(CC(c2ccccc2)c2ccccc2)CC1 [Compound 160] | > 100
CC[C@H]1CN(c2ncc(N/C(=N/C#N)NC)cc2Cl)CCN1C1CCN(Cc2ccc(Cl)cc2F)CC1 [Compound 205] | 25 to 100
Cc1cc(Nc2c(NCC(F)(F)F)c(=O)c2=O)cnc1N1C[C@@H](C)N(C2CCN(C(=O)C3Cc4ccccc4C3)CC2)C[C@@H]1C [Compound 166] | > 100
CC[C@H]1CN(c2ncc(Nc3c(OC)c(=O)c3=O)cc2Cl)CCN1C1CCN(Cc2ccc(Cl)cc2F)CC1 [Compound 106] | 25 to 100

Structure (SMILES) | IC50 [nM]
CC[C@H]1CN(c2ncc(NS(C)(=O)=O)cc2Cl)CCN1C1CCN(Cc2ccc(Cl)cc2F)CC1 [Compound 7] | < 25
CC[C@H]1CN(c2ncc(NC3=NS(=O)(=O)N=C3NC3CC3)cc2Cl)CCN1C1CCN(Cc2ccc(C#N)cc2)CC1 [Compound 248] | < 25
CC[C@H]1CN(c2ncc(NC3=NS(=O)(=O)N=C3Nc3ccccc3O)cc2Cl)CCN1C1CCN(Cc2ccc(Cl)cc2F)CC1 [Compound 277] | > 100
CC[C@H]1CN(c2ncc(NS(C)(=O)=O)cc2Cl)CCN1C1CCN(C(=O)c2ccc(Cl)cc2N)CC1 [Compound 24] | 25 to 100
CC[C@H]1CN(c2ncc(NS(N)(=O)=O)cc2Cl)CCN1C1CCN([C@H](C(N)=O)c2ccc(Cl)cc2)CC1 [Compound 35] | 25 to 100
CC[C@H]1CN(c2ncc(NS(C)(=O)=O)cc2Cl)CCN1C1CCN(Cc2ccsc2)CC1 [Compound 60] | > 100
C[C@H]1CN(c2ncc(NS(C)(=O)=O)cc2Cl)CCN1C1CCN(Cc2ccc(OC(F)(F)F)cc2)CC1 [Compound 38] | 25 to 100
CC[C@H]1CN(c2ncc(NS(C)(=O)=O)cc2Cl)CCN1C1CCN(Cc2ccc(O)cc2)CC1 [Compound 67] | > 100
C[C@@H]1CN(c2ncc(Nc3c(NCC(F)(F)F)c(=O)c3=O)cc2Cl)[C@@H](C)CN1C1CCN(Cc2ccc(Oc3ccccc3)cc2)CC1 [Compound 161] | > 100
CC1CCCC(N2CCC(N3C[C@H](C)N(c4ncc(Nc5c(NCC(F)(F)F)c(=O)c5=O)cc4Cl)C[C@H]3C)CC2)C1 (stereo partly drawn) [Compound 163] | > 100
CC[C@H]1CN(c2ncc(NC3=NS(=O)(=O)N=C3NC)cc2Cl)CCN1C1CCN(Cc2ccc(Cl)cc2C#N)CC1 [Compound 263] | 25 to 100
CC[C@H]1CN(c2ncc(NC3=NS(=O)(=O)N=C3NC3CC3)cc2Cl)CCN1C1CCN(Cc2ccc(F)c(F)c2)CC1 [Compound 251] | < 25
COc1ccccc1CN1CCC(N2C[C@H](C)N(c3ncc(Nc4c(NCC(F)(F)F)c(=O)c4=O)cc3Cl)C[C@H]2C)CC1 [Compound 154] | > 100
CSc1ccc(CN2CCC(N3C[C@H](C)N(c4ncc(Nc5c(NCC(F)(F)F)c(=O)c5=O)cc4Cl)C[C@H]3C)CC2)cc1 [Compound 121] | > 100
CC[C@H]1CN(c2ncc(NS(C)(=O)=O)cc2Cl)CCN1C1CCN(Cc2ccc(N(C)C)cc2)CC1 [Compound 45] | > 100
C[C@@H]1CN(c2ncc(Nc3c(NCC(F)(F)F)c(=O)c3=O)cc2Cl)[C@@H](C)CN1C1CCN(Cc2ccc(Cl)cc2Cl)CC1 [Compound 134] | > 100
COc1ccc(CN2CCC(N3C[C@H](C)N(c4ncc(Nc5c(NCC(F)(F)F)c(=O)c5=O)cc4Cl)C[C@H]3C)CC2)cc1 [Compound 117] | > 100
CC[C@H]1CN(c2ncc(NS(C)(=O)=O)cc2Cl)CCN1C1CCN(Cc2cccs2)CC1 [Compound 58] | > 100
CC(C)C1CCC(N2CCC(N3C[C@H](C)N(c4ncc(Nc5c(NCC(F)(F)F)c(=O)c5=O)cc4Cl)C[C@H]3C)CC2)CC1 (stereo partly drawn) [Compound 169] | > 100
Cc1cc(Nc2c(NCC(F)(F)F)c(=O)c2=O)cnc1N1C[C@@H](C)N(C2CCN(C(=O)c3c(C)noc3C)CC2)C[C@@H]1C [Compound 165] | > 100
C[C@H]1CN(c2ncc(NS(C)(=O)=O)cc2Cl)CCN1C1CCN(Cc2ccc(C#N)cc2)CC1 [Compound 53] | > 100
CC[C@H]1CN(c2cc(N)c([N+](=O)[O-])cc2Cl)CCN1C1CCN(Cc2ccc(Cl)cc2F)CC1 [Compound 220] | > 100
Cc1cc(OCc2ccccc2)cc(C)c1C(=O)N1CCC(N2C[C@H](C)N(c3ncc(Nc4c(NCC(F)(F)F)c(=O)c4=O)cc3Cl)C[C@H]2C)CC1 [Compound 140] | > 100
CCNC(=O)Nc1cc(Cl)c(N2CCN(C3CCN(Cc4ccc(Cl)cc4)CC3)[C@@H](CC)C2)c(Cl)c1 [Compound 193] | > 100
